Source: patent publication US20230399341A1, “7-PHENYL SUBSTITUTED 2-AMINOQUINAZOLINE INHIBITORS OF HPK1” (MERCK SHARP & DOHME LLC, priority 2020, published 2023)

biological target: T1, Human HPK1, catalytic domain (Homo sapiens, UniProt Q92918); test: HPK1-SLP76 TR-FRET Assay; assay type: biochemical; details: 75 pM HPK1, ATP 10 uM, SLP76 10 nM, 30 min pre-incubation, 60 min reaction
T1 sequence (Q92918 1-346): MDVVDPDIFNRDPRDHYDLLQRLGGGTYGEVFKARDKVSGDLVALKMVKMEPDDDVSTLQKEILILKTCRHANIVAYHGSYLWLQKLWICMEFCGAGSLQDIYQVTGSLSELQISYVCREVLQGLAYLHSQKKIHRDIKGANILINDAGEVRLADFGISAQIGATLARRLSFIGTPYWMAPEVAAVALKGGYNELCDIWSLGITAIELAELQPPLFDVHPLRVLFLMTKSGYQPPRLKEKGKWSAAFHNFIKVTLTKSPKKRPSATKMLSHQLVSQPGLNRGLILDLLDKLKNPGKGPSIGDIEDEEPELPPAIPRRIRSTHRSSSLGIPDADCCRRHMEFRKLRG

Row | IC50 [nM] | SMILES
1 | 391 | COc1cc2c(cc1Nc1ncc3ccc(N4CC5(CCOC5)OC4=O)cc3n1)CN(C)CC2 (racemic) [Compound 3-3, (S and R)-3-{2-[(6-methoxy-2-methyl-1,2,3,4-tetrahydroiso-quinolin-7-yl)amino]quinazolin-7-yl}-1,7-dioxa-3-azaspiro[4.4]-nonan-2-one]
2 | 228 | COc1cc2c(cc1Nc1ncc3ccc(NC4CCCC(O)C4)cc3n1)CN(C)CC2 (racemic) [Compound 3-39, (±)-3-({2-[(6-methoxy-2-methyl-1,2,3,4-tetrahydroisoquinolin-7-yl)amino]quinazolin-7-yl}-amino)cyclohexan-1-ol]
3 | 1.79 | COc1cc2c(cc1Nc1ncc3ccc(N4C(=O)OC[C@@H]4C)cc3n1)CN(C)CC2 [Compound 3-2, (S)-3-{2-[(6-methoxy-2-methyl-1,2,3,4-tetrahydroisoquinolin-7-yl)amino]quinazolin-7-yl}-4-methyl-1,3-oxazolidin-2-one]
4 | 24.3 | C[C@@H]1COC(=O)N1c1cc(N)c2cnc(Nc3ccc(S(C)(=O)=O)cc3)nc2c1 [Compound 3-77, (R)-3-(5-amino-2-((4-(methyl-sulfonyl)phenyl)amino)quinaz-olin-7-yl)-4-methyloxazolidin-2-one]
5 | 531 | COc1cc2c(cc1Nc1ncc3ccc(NCC4CC(=O)N(C)C4)cc3n1)CN(C)CC2 (stereo in doubt) [Compound 3-48, (4S)-4-[({2-[(6-methoxy-2-meth-yl-1,2,3,4-tetrahydroisoquinolin-7-yl)amino]quinazolin-7-yl}-amino)methyl]-1-methylpyrrol-idin-2-one]

Further lines, the molecule ahead of its results:

Row | SMILES | IC50 [nM]
6 | Cc1c(-c2cc3nc(Nc4ccc(N5CCOC5=O)cc4)ncc3c(N)c2F)cnc2c1NCCO2 [Compound 2-67, 3-(4-{[5-amino-6-fluoro-7-(8-methyl-2,3-dihydro-1H-pyrido[2,3-b][1,4]oxazin-7-yl)quinazolin-2-yl]amino}phenyl)-1,3-oxazolidin-2-one] | 0.0508
7 | Cc1c(-c2cc3nc(Nc4ccc(CS(C)(=O)=O)c(F)c4)ncc3c(N)c2F)cnc2c1NCCO2 [Compound 2-114, 6-fluoro-N~2~-{3-fluoro-4-[(methanesulfonyl)methyl]phenyl}-7-(8-methyl-2,3-dihydro-1H-pyrido[2,3-b][1,4]oxazin-7-yl)quinazoline-2,5-diamine] | 0.0654
8 | COc1cc2c(cc1Nc1ncc3ccc(-c4cccc5c4CCNC5)cc3n1)CN(C)CC2 [Compound 1-6, N-(6-methoxy-2-methyl-1,2,3,4-tetrahydroisoquinolin-7-yl)-7-(1,2,3,4-tetrahydroisoquinolin-5-yl)quinazolin-2-amine] | 92.2
9 | COc1cc2c(cc1Nc1ncc3ccc(-c4ccc(S(=O)(=O)N5CCCC5)cc4)cc3n1)CNCC2 [Compound 1-81, N-(6-methoxy-1,2,3,4-tetrahydroisoquinolin-7-yl)-7-{4-[(pyrrolidin-1-yl)sulfonyl]phenyl}quinazo-lin-2-amine] | 192
10 | COc1cc2c(cc1Nc1ncc3ccc(-c4cncc(N5CCN(C)CC5)c4)cc3n1)CNCC2 [Compound 1-54, N-(6-methoxy-1,2,3,4-tetrahydroisoquinolin-7-yl)-7-[5-(4-methylpiperazin-1-yl)pyridin-3-yl]quinazolin-2-amine] | 18.9
11 | Cc1c(-c2cc3nc(Nc4ccc(CS(C)(=O)=O)cc4)ncc3cc2F)cnc2c1NCCO2 [Compound 1-115, 6-fluoro-7-(8-methyl-2,3-dihydro-1H-pyrido[2,3-b][1,4]oxazin-7-yl)-N-(4-[(methylsulfonyl)methyl]phe-nyl}quinazolin-2-amine] | 0.0508
12 | COc1cc2c(cc1Nc1ncc3ccc(-c4cnc5[nH]c(=O)[nH]c5c4)cc3n1)CN(C)CC2 [Compound 1-106, 6-{2-[(6-methoxy-2-methyl-1,2,3,4-tetrahydroisoquinolin-7-yl)amino]quinazolin-7-yl}-1,3-dihydro-2H-imidazo[4,5-b]pyridin-2-one] | 44.1
